Where “and” joins values, the source holds several entries; their conditions need not be identical. Equal values may be shown once.
Test system: NOD mice with recent-onset diabetes
Assay: GLP-1 and gastrin therapy of recent-onset diabetes in NOD mice, fasting blood glucose
Format: in vivo, mouse
Details: NOD female mice, GLP-1 100 μg/kg/day, gastrin 3 μg/kg/day, i.p. twice a day
Text: In this example, the effect of treatment by a combination of GLP-1 and gastrin was examined in NOD mice with recent onset diabetes, to determine whether administration of both GLP-1 and gastrin would prevent severe hyperglycemia, ketoacidosis and death as well as increase pancreatic insulin content in NOD mice with recent-onset diabetes. The I.N.T.™ composition used was gastrin as synthetic human gastrin I having 17 amino acid residues with a Leu residue at amino acid position 15. The GLP-1 used was GLP-1 which is the biologically active fragment of human/mouse GLP-1 (having residues at positions 7-36 compared to the precursor from which the fragment is processed; obtained from Bachem H6795).
Non-obese diabetic (NOD) female mice, ages 12-14 weeks, were monitored for development of onset of diabetes (fasting blood glucose >8.0 to 15 mmol/l), and within 48 hours after onset of symptoms, two groups of mice were each treated as follows: one group was treated with vehicle only; and the other group was administered 100 μg/kg/day of GLP-1, each treatment administered via the intraperitoneal route twice daily.
Therapy was administered for 14 days. Animals were monitored weekly for fasting blood glucose (FBG) levels. FBG levels were measured at about 12 hours after food had been withdrawn, and 24 hours after the last peptide or vehicle injection. Upon cessation of therapy, all mice were monitored for FBG levels for the next 4 weeks (weeks 2-6) so as to determine whether prevention of hyperglycemia persisted after termination of therapeutic treatment.
The protocol includes sampling of these mice for data again at 6 weeks, and blood collected for assay of FBG and plasma C-peptide, and the mice are sacrificed for pancreatic insulin determinations and scoring of islet inflammation (insulitis). From the outset of treatment, mice received neither insulin-replacement treatment nor immunosuppression. The following parameters are assessed: survival rates, pancreatic insulin levels, presence of islet inflammation and fasting blood glucose levels.

GLP-1: biologically active fragment of human/mouse GLP-1 (having residues at positions 7-36); obtained from Bachem H6795
FBG (mM) at day: 0 (day 0 (start of treatment)): 12.3 ± 0.9 mM | FBG (mM) at day: 7 (day 7 of treatment): 14.1 ± 1.8 mM | FBG (mM) at day: 14 (day 14 (end of treatment)): 15.3 ± 2.6 mM | FBG (mM) at day: 18 (day 18 (treatment stopped at 14 days)): 15.8 mM and 15.8 ± 4.2 mM
